For one compound, IC50 results are on record in ChEMBL document CHEMBL4706683 (J Med Chem, 2021).

The target of the test is T1, Protein deacetylase HDAC6 (Homo sapiens, UniProt Q9UBN7).
T1 sequence (Q9UBN7 whole entry): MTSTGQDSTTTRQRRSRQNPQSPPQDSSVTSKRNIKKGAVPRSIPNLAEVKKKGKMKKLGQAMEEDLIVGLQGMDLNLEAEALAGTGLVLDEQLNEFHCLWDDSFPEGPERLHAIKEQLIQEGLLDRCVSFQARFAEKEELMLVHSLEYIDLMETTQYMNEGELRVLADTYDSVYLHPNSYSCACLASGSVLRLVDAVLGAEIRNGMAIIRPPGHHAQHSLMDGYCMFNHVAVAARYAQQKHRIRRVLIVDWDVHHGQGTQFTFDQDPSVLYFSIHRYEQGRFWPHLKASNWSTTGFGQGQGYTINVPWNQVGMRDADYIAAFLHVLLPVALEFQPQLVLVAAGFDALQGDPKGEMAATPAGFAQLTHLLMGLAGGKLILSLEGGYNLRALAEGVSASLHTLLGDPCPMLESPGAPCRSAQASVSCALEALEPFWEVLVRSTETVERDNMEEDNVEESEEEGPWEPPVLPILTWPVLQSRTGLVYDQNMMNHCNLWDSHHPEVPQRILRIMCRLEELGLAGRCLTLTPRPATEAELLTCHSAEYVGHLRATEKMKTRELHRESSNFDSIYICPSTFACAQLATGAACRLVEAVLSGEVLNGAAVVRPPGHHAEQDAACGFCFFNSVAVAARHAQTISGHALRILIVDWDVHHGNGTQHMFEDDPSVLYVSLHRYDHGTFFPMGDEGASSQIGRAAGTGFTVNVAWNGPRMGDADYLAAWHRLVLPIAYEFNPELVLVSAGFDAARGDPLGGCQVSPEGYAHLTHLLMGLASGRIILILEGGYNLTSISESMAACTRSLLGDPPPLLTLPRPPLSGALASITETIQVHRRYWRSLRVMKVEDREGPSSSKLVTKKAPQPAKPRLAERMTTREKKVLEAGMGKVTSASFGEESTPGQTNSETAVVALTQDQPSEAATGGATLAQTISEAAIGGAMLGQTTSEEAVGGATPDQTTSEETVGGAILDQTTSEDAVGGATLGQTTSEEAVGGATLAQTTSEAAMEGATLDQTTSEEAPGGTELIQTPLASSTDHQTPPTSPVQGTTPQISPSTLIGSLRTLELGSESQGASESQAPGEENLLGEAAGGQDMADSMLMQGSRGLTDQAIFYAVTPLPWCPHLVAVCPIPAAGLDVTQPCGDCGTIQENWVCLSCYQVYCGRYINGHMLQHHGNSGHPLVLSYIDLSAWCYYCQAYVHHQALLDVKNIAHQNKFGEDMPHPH
Kind of test: Inhibition of human HDAC6 using Ac-peptide as substrate preincubated for 15 mins followed by substrate and trypsin addition and further incubated for 60 mins.

For orientation: IC50 means the concentration at which inhibition is half-maximal. A low value points to higher potency. `Cl.O=C(NO)c1cnc(N2CCC3(CCN(Cc4c[nH]c5ccccc45)C3)CC2)nc1` displayed an IC50 of 32 nM. In other words, the double-digit nanomolar range.
